Reference: US11247990B1, “Bicyclic fused pyridine compounds as inhibitors of TAM kinases” (ARRAY BIOPHARMA INC., priority 2017, dated 2022)
Where a name gives a salt, the structure may show the parent alone.

Key:
Conditions in all cases: averaged IC50
[1] = biological target: His-tagged recombinant human AXL cytoplasmic domain (Homo sapiens (Human), UniProt P30530); experiment: AXL Enzyme Assay (LanthaScreen Eu Kinase Binding, TR-FRET)
Procedure, shortened: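 Compound displacement measured by TR-FRET after 60 min at 22 °C, using Eu-based LanthaScreen binding technology. Ratiometric emission converted to percent of control, fitted to a 4-parameter logistic curve, with IC50 at 50 POC.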

[2] = biological target: His-tagged recombinant human MER cytoplasmic domain (Homo sapiens (Human), UniProt Q12866); experiment: MER Enzyme Assay (LanthaScreen Eu Kinase Binding, TR-FRET)
Procedure, shortened: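 Percent of control, derived from ratiometric TR-FRET emission, was fitted to a 4-parameter logistic curve and IC50 taken at 50 POC. Binding was read after 60 min at 22 °C using Eu-based LanthaScreen technology and recombinant His-tagged MER cytoplasmic domain.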

[3] = biological target: GST-tagged recombinant human TYRO3 kinase domain (Homo sapiens (Human), UniProt Q06418); experiment: TYRO3 Enzyme Assay (LanthaScreen Eu Kinase Binding, TR-FRET)
Procedure, shortened: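 LanthaScreen Eu binding (tracer displacement) format read by TR-FRET after 60 min at 22 °C. Emission ratio converted to percent of control; IC50 taken where a 4-parameter logistic fit crosses 50 POC.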

Chain of His-tagged recombinant human AXL cytoplasmic domain (P30530 473-894): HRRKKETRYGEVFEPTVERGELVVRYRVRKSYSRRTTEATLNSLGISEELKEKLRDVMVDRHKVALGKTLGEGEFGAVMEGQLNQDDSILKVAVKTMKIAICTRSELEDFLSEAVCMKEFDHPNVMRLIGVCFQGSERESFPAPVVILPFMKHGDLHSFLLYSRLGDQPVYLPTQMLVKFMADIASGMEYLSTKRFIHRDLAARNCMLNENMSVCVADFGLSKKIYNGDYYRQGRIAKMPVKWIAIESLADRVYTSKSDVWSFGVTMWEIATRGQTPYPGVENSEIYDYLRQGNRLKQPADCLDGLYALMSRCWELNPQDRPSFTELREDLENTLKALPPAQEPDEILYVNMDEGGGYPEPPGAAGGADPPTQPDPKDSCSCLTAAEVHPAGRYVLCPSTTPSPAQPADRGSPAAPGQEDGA
Chain of GST-tagged recombinant human TYRO3 kinase domain (Q06418 518-790): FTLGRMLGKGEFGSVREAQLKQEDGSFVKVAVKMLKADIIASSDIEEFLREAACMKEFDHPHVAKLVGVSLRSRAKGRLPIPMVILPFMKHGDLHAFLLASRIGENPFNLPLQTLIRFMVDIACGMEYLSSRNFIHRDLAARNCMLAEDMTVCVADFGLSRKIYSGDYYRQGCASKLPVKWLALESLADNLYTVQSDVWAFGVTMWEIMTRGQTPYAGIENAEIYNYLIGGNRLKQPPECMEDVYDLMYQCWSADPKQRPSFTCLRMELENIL
Chain of His-tagged recombinant human MER cytoplasmic domain (Q12866 527-999): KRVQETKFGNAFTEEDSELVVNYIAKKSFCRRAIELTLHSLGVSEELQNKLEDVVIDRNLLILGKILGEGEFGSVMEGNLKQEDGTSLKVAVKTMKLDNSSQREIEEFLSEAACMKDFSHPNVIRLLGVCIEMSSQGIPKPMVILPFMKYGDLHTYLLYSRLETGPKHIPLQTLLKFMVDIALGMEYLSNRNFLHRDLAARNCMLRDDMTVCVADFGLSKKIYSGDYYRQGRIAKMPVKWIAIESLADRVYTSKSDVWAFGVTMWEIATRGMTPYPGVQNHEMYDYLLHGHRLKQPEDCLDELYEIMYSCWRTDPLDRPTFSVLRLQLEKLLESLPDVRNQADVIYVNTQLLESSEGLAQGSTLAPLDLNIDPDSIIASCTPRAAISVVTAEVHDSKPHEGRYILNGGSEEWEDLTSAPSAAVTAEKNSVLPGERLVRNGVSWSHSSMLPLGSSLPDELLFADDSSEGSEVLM

| Structure (SMILES) | IC50 [1] | IC50 [2] | IC50 [3] |
| --- | --- | --- | --- |
| CNc1cc2c(cn1)c(-c1cnn(C)c1)nn2[C@@H]1CC[C@H](Oc2ccccc2)[C@@H](O)C1 (racemic) [Example 470, Racemic-(1S,2S,5R)-5-(3-(1-methyl-1H-pyrazol-4-yl)-6-(methylamino)-1H-pyrazolo[4,3-c]pyridin-1-yl)-2-phenoxycyclohexan-1-ol] | < 10 nM | < 10 nM | 10 to 100 nM |
| CCNc1cc2c(cn1)c(-c1ccc3c(c1)CN(C)C3=O)nn2[C@H]1CC[C@@H](Oc2cn(C)nc2C(F)(F)F)CC1 [Example 288, 5-(6-(ethylamino)-1-((1s,4s)-4((1-methyl-3-(trifluoromethyl)-1H-pyrazol-4-yl)oxy)cyclohexyl)-1H-pyrazolo[4,3-c]pyridin-3-yl)-2-methylisoindolin-1-one] | < 10 nM | < 10 nM | < 10 nM |
| CNc1cc2c(cn1)c(-c1cnn([C@H]3CCNC[C@@H]3F)c1)nn2[C@H]1CC[C@@H](Oc2ccccc2F)CC1 [Example 399, 1-((1s,4R)-4-(2-fluorophenoxy)cyclohexyl)-3-(1-((3S,4S)-3-fluoropiperidin-4-yl)-1H-pyrazol-4-yl)-N-methyl-1H-pyrazolo[4,3-c]pyridin-6-amine] | < 10 nM | < 10 nM | 10 to 100 nM |
| CNc1cc2c(cn1)c(-c1cnn(C(CO)CO)c1)nn2[C@H]1CC[C@@H](Oc2cccnc2C(F)(F)F)CC1 [Example 210, 2-(4-(6-(methylamino)-1-((1 s,4s)-4-((2-(trifluoromethyl)pyridin-3-yl)oxy)cyclohexyl)-1H-pyrazolo[4,3-c]pyridin-3-yl)-1H-pyrazol-1-yl)propane-1,3-diol] | < 10 nM | < 10 nM | < 10 nM |
| CCNc1cc2c(cn1)c(-c1cnn(C[C@@H](O)CO)c1)nn2[C@H]1CC[C@@H](Oc2cccc(Cl)c2)CC1 [Example 422] | < 10 nM | < 10 nM | 10 to 100 nM |
| CCNc1cc2c(cn1)c(-c1cnn(C[C@@H](O)CO)c1)nn2[C@H]1CC[C@@H](Oc2ccc(F)cc2F)CC1 [Example 423, (R)-3-(4-(1-((1s,4S)-4-(2,4-difluorophenoxy)cyclohexyl)-6-(ethylamino)-1H-pyrazolo[4,3-c]pyridin-3-yl)-1H-pyrazol-1-yl)propane-1,2-diol] | < 10 nM | < 10 nM | 10 to 100 nM |
| CCNc1cc2c(cn1)c(N1CCC(N3CCN(C)CC3)CC1)nn2[C@H]1CC[C@@H](Oc2nccc(C(F)(F)F)c2F)CC1 [Example 489, N-ethyl-1-((1s,4s)-4((3-fluoro-4-(trifluoromethyl)pyridin-2-yl)oxy)cyclohexyl)-3-(4-(4-methylpiperazin-1-yl)piperidin-1-yl)-1H-pyrazolo[4,3-c]pyridin-6-amine] | < 10 nM | < 10 nM | 10 to 100 nM |
| CCNc1cc2c(cn1)c(-c1ccc(CN3CCN(C)CC3)cc1)nn2[C@H]1CC[C@@H](Oc2cnn(C)c2C(F)(F)F)CC1 [Example 293, N-ethyl-1-((1s,4s)-4-((1-methyl-5-(trifluoromethyl)-1H-pyrazol-4-yl)oxy)cyclohexyl)-3-(4-((4-methylpiperazin-1-yl)methyl)phenyl)-1H-pyrazolo[4,3-c]pyridin-6-amine] | < 10 nM | < 10 nM | 10 to 100 nM |
| CNc1cc2c(cn1)c(-c1cnn(C(C)(C)C#N)c1)nn2[C@H]1CC[C@@H](Oc2cccnc2C(F)(F)F)CC1 [Example 160, 2-methyl-2-(4-(6-(methylamino)-1-((1s,4s)-4-((2-(trifluoromethyl)pyridin-3-yl)oxy)cyclohexyl)-1H-pyrazolo[4,3-c]pyridin-3-yl)-1H-pyrazol-1-yl)propanenitrile] | < 10 nM | < 10 nM | < 10 nM |
| CCNc1cc2c(cn1)c(-c1ccc(=O)n(C)c1)nn2[C@H]1CC[C@@H](Oc2nccc(C(F)(F)F)c2F)CC1 [Example 298, 5-(6-(ethylamino)-1-((1s,4s)-4-((3-fluoro-4-(trifluoromethyl)pyridin-2-yl)oxy)cyclohexyl)-1H-pyrazolo[4,3-c]pyridin-3-yl)-1-methylpyridin-2(1H)-one] | < 10 nM | < 10 nM | 10 to 100 nM |
| CCNc1cc2c(cn1)c(-c1cnn(C)c1)nn2[C@H]1CC[C@@H](Oc2cccc(C#N)c2F)CC1 [Example 497] | < 10 nM | < 10 nM | < 10 nM |
| CNc1cc2c(cn1)c(-c1cnn(C(C)(C)CO)c1)nn2[C@H]1CC[C@@H](Oc2ccccc2F)CC1 [Example 395, 2-(4-(1-((1s,4s)-4-(2-fluorophenoxy)cyclohexyl)-6-(methylamino)-1H-pyrazolo[4,3-c]pyridin-3-yl)-1H-pyrazol-1-yl)-2-methylpropan-1-ol] | < 10 nM | < 10 nM | 10 to 100 nM |
| CNc1cc2c(cn1)c(-c1cnn(C)c1)nn2[C@H]1CC[C@@H](Oc2cccc3ncc(F)cc23)CC1 [Example 384, 1-((1,4s)-4-((3-fluoroquinolin-5-yl)oxy)cyclohexyl)-N-methyl-3-(1-methyl-1H-pyrazol-4-yl)-1H-pyrazolo[4,3-c]pyridin-6-amine] | < 10 nM | < 10 nM | < 10 nM |
| CCNc1cc2c(cn1)c(-c1ccn(C)c(=O)c1)nn2[C@H]1CC[C@@H](Oc2nccc(C(F)(F)F)c2F)CC1 [Example 297, 4-(6-(ethylamino)-1-((1s,4s)-4-((3-fluoro-4-(trifluoromethyl)pyridin-2-yl)oxy)cyclohexyl)-1H-pyrazolo[4,3-c]pyridin-3-yl)-1-methylpyridin-2(1H)-one] | < 10 nM | < 10 nM | 10 to 100 nM |
| CCNc1cc2c(cn1)c(C1=CCN(C)CC1)nn2[C@H]1CC[C@@H](Oc2nccc(C(F)(F)F)c2F)CC1 [Example 255] | < 10 nM | < 10 nM | 10 to 100 nM |
| CCNc1cc2c(cn1)c(-c1cnn(C[C@@H](O)C(C)(C)O)c1)nn2[C@H]1CC[C@@H](Oc2nccc(C(F)(F)F)c2F)CC1 [Example 237, (R)-1-(4-(6-(ethylamino)-1-((1s,4R)-4-((3-fluoro-4-(trifluoromethyl)pyridin-2-yl)oxy)cyclohexyl)-1H-pyrazolo[4,3-c]pyridin-3-yl)-1H-pyrazol-1-yl)-3-methylbutane-2,3-diol] | < 10 nM | < 10 nM | 10 to 100 nM |
| CNc1cc2c(cn1)c(-c1cnn(C(CO)CO)c1)nn2[C@H]1CC[C@@H](Oc2ccc(F)cc2)CC1 [Example 410, 2-(4-(1-((1s,4s)-4-(4-fluorophenoxy)cyclohexyl)-6-(methylamino)-1H-pyrazolo[4,3-c]pyridin-3-yl)-1H-pyrazol-1-yl)propane-1,3-diol] | < 10 nM | < 10 nM | 10 to 100 nM |
| CCNc1cc2c(cn1)c(-c1cnn(C(C)(C)C#N)c1)nn2[C@H]1CC[C@@H](Oc2cccnc2C(F)(F)F)CC1 [Example 164, 2-(4-(6-(ethylamino)-1-((1s,4s)-4-((2-(trifluoromethyl)pyridin-3-yl)oxy)cyclohexyl)-1H-pyrazolo[4,3-c]pyridin-3-yl)-1H-pyrazol-1-yl)-2-methylpropanenitrile] | < 10 nM | < 10 nM | < 10 nM |
| CCNc1cc2c(cn1)c(-c1cnn(CC(C)(C)CO)c1)nn2[C@H]1CC[C@@H](Oc2nccc(C(F)(F)F)c2F)CC1 [Example 271, 3-(4-(6-(ethylamino)-1-((1s,4s)-4-((3-fluoro-4-(trifluoromethyl)pyridin-2-yl)oxy)cyclohexyl)-1H-pyrazolo[4,3-c]pyridin-3-yl)-1H-pyrazol-1-yl)-2,2-dimethylpropan-1-ol hydrochloride] | < 10 nM | < 10 nM | 10 to 100 nM |
| CCNc1cc2c(cn1)c(N1CCC[C@H](NC)C1)nn2[C@H]1CC[C@@H](Oc2nccc(C(F)(F)F)c2F)CC1 [Example 338, N-ethyl-1-((1s,4R)-4-((3-fluoro-4-(trifluoromethyl)pyridin-2-yl)oxy)cyclohexyl)-3-((S)-3-(methylamino)piperidin-1-yl)-1H-pyrazolo[4,3-c]pyridin-6-amine] | < 10 nM | < 10 nM | 10 to 100 nM |
| CNc1cc2c(cn1)c(-c1ccc(CN3CCN(C)CC3)cc1)nn2[C@H]1CC[C@@H](Oc2cn(C)nc2C(F)(F)F)CC1 [Example 285, N-methyl-1-((1s,4s)-4-((1-methyl-3-(trifluoromethyl)-1H-pyrazol-4-yl)oxy)cyclohexyl)-3-(4-((4-methylpiperazin-1-yl)methyl)phenyl)-1H-pyrazolo[4,3-c]pyridin-6-amine] | < 10 nM | < 10 nM | < 10 nM |
